Results on five compounds are retold here after patent US20240239750A1, “PHARMACEUTICAL PREPARATION” (Aerie Pharmaceuticals, Inc., priority 2021, published 2024).

What all share (format): physicochemical
Data set [1] can be described thus: Polymorph stability study (competitive slurrying). On the procedure: To prepare solutions saturated with Compound 1 mono-tosylate for competitive slurrying, 2×100 mg (0.20 mmol) amorphous Compound 1 mono-tosylate was weighed into 2×4 mL vials. To each vial, 500 μL of ethanol was added and the vials were manually shaken for a few seconds. Complete dissolution was noted. A further about 20 mg of amorphous Compound 1 mono-tosylate was added to each vial and the vials were agitated for about 3 hours: one vial at ambient temperature and one vial at 60° C. After about 3 hours, both were solutions. More amorphous Compound 1 mono-tosylate (about 30 mg) was added to each vial and they were shaken at their respective temperatures again for about another hour. Both appeared to be slurries. To remove the excess solids, the slurries were filtered centrifugally and the mother liquors each placed into separate, clean vials. […] After 48 hours, the solids were recovered via centrifugal filtration and analyzed by XRPD. The XRPD plate containing the solids was then dried at 40° C. for 2 hours and re-analyzed.
To prepare a solution saturated with amorphous Compound 1 mono-tosylate for competitive slurrying, 50 mg (0.10 mmol) of amorphous Compound 1 mono-tosylate was weighed into a 4 mL vial. […] After 72 hours, the solids were recovered via centrifugal filtration and analyzed by XRPD.

A short description of data set [2]: TG/DSC thermal analysis. Conditions: for onset of thermal decomposition: TG/DSC, 10° C./min; for Enthalpy / Onset Temperature / Signal Temperature: TG/DSC signal of Compound 1 mono-tosylate solid form. On the procedure:
Thermogravimetric Analysis/Differential Scanning Calorimetry (TGA/DSC): Approximately, 5-10 mg of material was added into a pre-tared open aluminum pan and loaded into a TA Instruments Discovery SDT 650 Auto—Simultaneous DSC and held at room temperature. The sample was then heated at a rate of 10° C./min from 30° C. to 350° C. during which time the change in sample weight was recorded along with the heat flow response (DSC). Nitrogen was used as the sample purge gas, at a flow rate of 200 cm^3/min.
Thermogravimetric/Differential Thermal Analysis (TG/DTA): Approximately, 5-10 mg of material was added into a pre-tared open aluminum pan and loaded into a TA Instruments Discovery SDT 650 Auto—Simultaneous DSC and held at room temperature. The sample was then heated at a rate of 10° C./min from 30° C. to 350° C. during which time the change in sample weight was recorded along with the heat flow response (DSC). Nitrogen was used as the sample purge gas, at a flow rate of 200 cm^3/min. […]
(In general: Differential scanning calorimetry records heat flow against a reference as temperature is scanned.)

The nature of data set [3]: 7 day stability study of solid forms (XRPD, HPLC). The conditions noted are these: stored 7 days; 40° C./75% RH (open vial) according to b80 and FIG. 14 legend. Here is the method: Crystalline form 5 of Compound 1 mono-tosylate was obtained during a 7 day stability study for crystalline forms 1 and 4. In the study, 3×20 mg (0.04 mmol) of crystalline forms 1 and 4, and amorphous Compound 1 mono-tosylate, were individually weighted into 1.5 mL vials and stored under the following conditions for 7 days: • (i) 40° C./75% relative humidity (RH) (open vial); • (ii) 80° C./ambient humidity (sealed vial); and • (iii) Ambient conditions (open vial).
After 7 days, any remaining solids recovered were analyzed by XRPD to assess form purity and HPLC changes in chemical purity. […] More crystalline form 5 was prepared by storing 100 mg of crystalline form 4 […] for approximately 4 days.

Data set [4] in a line: Drying of solids and re-analysis by XRPD (form conversion). Here is the method:
Any new solids which produced patterns by XRPD were dried at 40° C. for 24 hours before being analyzed again. Potential New Patterns were also analyzed by ^1H NMR, PLM and TG/DSC.
To prepare crystalline forms 1 and 4 of Compound 1 mono-tosylate, 2×500 mg (1.01 mmol) of amorphous Compound 1 mono-tosylate was placed into 20 ml vials. To each of these vials, 12 ml of solvent (dichloromethane for crystalline form 1 and tetrahydrofuran for crystalline form 4) was added to prepare slurries. Volumes/mass used were a direct scale-up from the primary screen discussed above. The slurries were thermally cycled (with agitation) between ambient temperature and 40° C. (4-hour cycles at each condition) for 72 hours. Post-thermal cycling, an aliquot of solid was removed from each vial using a micro-spatula and analyzed by XRPD to confirm that the desired form was produced. The remainder of each slurry was then filtered by Buchner filtration. The solids were dried on the filter bed for no longer than 1 minute before being transferred to pre-weighed 20 ml vials. The solids were then dried under vacuum at ambient temperature for 2 hours. Another aliquot of each solid was analyzed by XRPD post-drying. […] As such, the solids were transferred to an oven at 40° C. (ambient pressure) and subsequently dried for approximately 18 hours. […] Crystalline form 1 yield: 86.1%. Crystalline form 4 yield: 84.2%.

[5] abbreviates: listed as Form 6, mono-tosylate salt.
[6] abbreviates: listed as Amorphous, mono-tosylate salt.

“And” between values parts separate entries of the source, which are not always exact repeats. Identical values can stand only once.

Turning to `Cc1ccc(S(=O)(=O)O)cc1.NC[C@@H](C(=O)Nc1ccc2cnccc2c1)c1ccc(CO)cc1` [crystalline form 1, alpha-(aminomethyl)-4-(hydroxymethyl)-N-6-isoquinolinyl-(S)-benzeneacetamide mono-tosylate salt], the “form recovered (XRPD) after competitive slurrying” value in data set [1] (forms 1, 4 and 5 together in saturated ethanol, 48 hours, ambient temperature and 60° C.) is on record as “New crystalline form 6 was observed”. Besides, in data set [2] (mono-tosylate salt), the “onset of thermal decomposition” value worked out at 189 °C.
`Cc1ccc(S(=O)(=O)O)cc1.NC[C@@H](C(=O)Nc1ccc2cnccc2c1)c1ccc(CO)cc1` [crystalline form 6, alpha-(aminomethyl)-4-(hydroxymethyl)-N-6-isoquinolinyl-(S)-benzeneacetamide mono-tosylate salt]: in data set [1] (dried at 40° C. for 2 hours), the “form after drying of the recovered solids” value is listed as “retained on drying”. Moreover, in data set [2] (setting [5]), the Enthalpy amounted to 165.0 J/g, the “Onset Temperature” value worked out at 196.2 °C and the “Signal Temperature” value was determined as 201.5 °C. Also, in data set [2] (no loss in mass on heating prior to melting/decomposition), the “stability of the form (conclusion from thermal and NMR analyses)” value is “stable anhydrous form”.
As for `Cc1ccc(S(=O)(=O)O)cc1.NC[C@@H](C(=O)Nc1ccc2cnccc2c1)c1ccc(CO)cc1` [crystalline form 4, alpha-(aminomethyl)-4-(hydroxymethyl)-N-6-isoquinolinyl-(S)-benzeneacetamide mono-tosylate salt], the “crystalline form found by XRPD after 7 day stability study” value in data set [3] is recorded as “converted into a new crystalline form: crystalline form 5”. Also, the Enthalpy in data set [2] (listed as Form 4, mono-tosylate salt) was 148.3 J/g and 126.6 J/g.
Regarding `Cc1ccc(S(=O)(=O)O)cc1.NC[C@@H](C(=O)Nc1ccc2cnccc2c1)c1ccc(CO)cc1` [crystalline form 3, alpha-(aminomethyl)-4-(hydroxymethyl)-N-6-isoquinolinyl-(S)-benzeneacetamide mono-tosylate salt], the “form conversion on drying” value in data set [4] (drying at 40° C. for approximately 24 hours) is given as “convert to crystalline form 4”; in data set [4] (oven at 40° C. (ambient pressure), approximately 18 hours), “converted to crystalline form 4”. Besides, the form after drying result in data set [4] (under vacuum at ambient temperature for 2 hours) is “crystalline form 3 remained also”.
Consider `Cc1ccc(S(=O)(=O)O)cc1.NC[C@@H](C(=O)Nc1ccc2cnccc2c1)c1ccc(CO)cc1` [amorphous Compound 1 mono-tosylate, alpha-(aminomethyl)-4-(hydroxymethyl)-N-6-isoquinolinyl-(S)-benzeneacetamide mono-tosylate salt], for which, in data set [2] (setting [6]), the Enthalpy turned out to be 94.1 J/g, the “Onset Temperature” value was 184.0 °C and the “Signal Temperature” value was determined as 202.1 °C. For the same compound, in data set [2] (listed as Amorphous Compound 1 Mono-Tosylate, mono-tosylate salt), the “onset of thermal decomposition” value is reported as “event associated with decomposition observed (onset 184° C.)”. The “onset of thermal decomposition” value in data set [2] (listed as amorphous Compound 1, mono-tosylate salt) came to 184 °C. In addition, in data set [2] (listed as amorphous material, mono-tosylate salt), the “onset of thermal decomposition” value was “about 184 °C”.
